# According to the OPERA property sets (Mansouri et al. 2018):
logP,solubility,SMILES
1.05,–,CC(=NN=C(N)N)c1cccs1
1.09,–,O=C(OCCOCCOCCO)c1ccccc1
-0.89,–,Nc1ccc(C(=O)NCC(=O)O)cc1
0.88,–,NS(=O)(=O)c1cc2cc(CN3CCOCC3)sc2o1
1.07,–,Cc1cn([C@H]2C[C@H](N=[N+]=[N-])[C@@H](CO)O2)c(=O)[nH]c1=S
2.09,–,O=c1c(Cl)c(Cl)cnn1-c1ccccc1
1.88,–,O=C(O)CNC(=O)c1cccc(I)c1
3.29,–,CCCNc1nc(C)nc(C(Cl)(Cl)Cl)n1
-0.98,–,Nc1ncnc2c1nc(Sc1ccc(Cl)cc1)n2C1OC2COP(=O)(O)OC2C1O (stereo not drawn)
-0.17,–,CCN(O)CC
–,0.00013 mM,CCc1ccc2cc3ccccc3cc2c1
7.97,–,CCN(CC)CCN=c1cc2n(-c3ccc(Cl)cc3)c3ccccc3nc-2cc1Nc1ccc(Cl)cc1
-0.49,–,CC(O)COC(=O)[C@@H](N)Cc1ccc(O)c(O)c1 (stereo partly drawn)
5.81,–,Clc1cc2c(Cl)ccc(Cl)c2cc1Cl
–,700 mM,OCC(S)CS (stereo not drawn)
2.72,–,Cc1nc(NCC(C)O)c(C#N)cc1-c1ccccc1 (stereo not drawn)

logP,solubility,SMILES
-0.28,–,Cc1ccc(Br)c(C)c1NC(=O)CN(CC(=O)O)CC(=O)O
-0.36,–,COCCOCCOC
2.96,–,c1ccc2c(c1)Cc1cccnc1-2
4.4,–,CCCCC(OC(Cc1ccccc1)C(=O)N1CCC(OCOC)CC1)C(=O)NC(CC1CCCCC1)C(O)CC(C(=O)NCCCNC(=NC#N)NC)C(C)C (stereo not drawn)
5.5,1.32e-06 mM,CCCCN(CCOC(C)=O)c1ccc(N=Nc2c(C#N)cc([N+](=O)[O-])cc2C#N)c(C)c1
3.58,–,COc1ccc(N=C=S)cc1
0.21,–,CCOC(=O)OCn1ncc2c(O)ncnc21
2.14,–,CC(C)OC(C)(C)C
0.98,–,N=C(N)NN=Cc1cccs1
1.94,–,O=C(O)CNC(=O)c1ccc(I)cc1
-0.64,–,NC(N)=Nc1nc(CSCCC(N)=NS(N)(=O)=O)cs1
1.8,–,CCCC(C)C(=O)O (stereo not drawn)
1.99,–,CC(C)(C#N)Nc1nc(Cl)nc(NC2CC2)n1
2.33,–,CCCC(CCC)=NNC(N)=Nc1ccccc1
0.07,–,CN1C(=O)CC[C@H]1c1cccnc1
1,–,Cn1cnc([N+](=O)[O-])c1I

# More lines, now with the values behind:
SMILES,logP,solubility
N=C(N)NN=C1C=CC(=NNC(N)=S)C=C1,1.23,–
Cc1cc(C)c(NC(=O)CN(CC(=O)O)CC(=O)O)c(C)c1Br,0.11,–
CC(=O)O[C@@H]1C[C@H]2CC[C@]1(C)C2(C)C,4.3,–
OCc1cc(Cl)cc(Cl)c1,2.9,–
N#CC(C#N)=Cc1ccc(Br)o1,2.16,–
c1ccc(Cn2ccnc2)cc1,1.6,–
CC(=O)OCCOCn1cnc2cnc(N)nc21,-0.61,–
N=C(N)NN=Cc1ccc(Br)cc1,1.3,–
CC(C)Oc1c(Br)c(Br)n(C)c1C(=O)Nc1nn[nH]n1,2.52,–
O=C(O)c1cccnc1Nc1cccc(C(F)(F)F)c1,4.43,–
CCCN(C)N=O,0.56,–
Clc1ccc2cccc(Cl)c2c1,4.56,–
CCCN1CCOC2c3cccc(O)c3CCC21 (stereo not drawn),2.22,–
Cc1nc2ccc([N+](=O)[O-])cc2[nH]1,1.94,–
CCCCCCCOC(=O)c1ccc(N)cc1,4.5,–
CN1CCCC1=O,-0.38,–
CC(=O)/C=C/C1C(C)=CCCC1(C)C (stereo not drawn),–,0.551 mM
FC(F)(F)c1cccc(Cn2cncn2)c1,1.74,–
O=C(O)C1C2CCC(O2)C1C(=O)O (stereo not drawn),1.91,–
CN(C)C1CSSC1,–,13.4 mM
CCCCN(CC)N=O,1.63,–
O=C(O)c1ccc(-c2ccccc2)cc1,3.75,–
CCn1ccc(=O)c(O)c1,-0.4,–
CCCCCCCCCC,5.01,–
COC(=O)C1=C(C)NC(C)=C(C(=O)O[C@@H]2CCCN(Cc3ccccc3)C2)[C@@H]1c1cccc([N+](=O)[O-])c1,4.61,–

SMILES,logP,solubility
Cc1ccc(C=[N+]([O-])c2ccccc2)cc1,2.41,–
Oc1cccc(N=C=S)c1,3.23,–
CC(C)C1(C)N=C(c2nc3ccccc3cc2C(=O)O)NC1=O (stereo not drawn),1.86,–
CC1=CC(=O)CC(C)(C)C1,1.7,–
N#CCCCC#N,-0.72,–
CCCC(=O)OCN1C(=O)NC(c2ccccc2)(c2ccccc2)C1=O,3.34,–
O=[N+]([O-])c1cccc(O)c1,–,97.1 mM
ClC(Cl)(Cl)c1nc(NCc2ccccc2)nc(C(Cl)(Cl)Cl)n1,4.93,–
C=CC(=O)OCCOC,0.56,–
NS(=O)(=O)c1cc(C2(O)NC(=O)c3ccccc32)ccc1Cl (stereo not drawn),0.85,–
ClCC1CO1 (stereo not drawn),0.45,–
Cc1cn(C2CC(O)C(CO)O2)c(=O)[nH]c1=S (stereo not drawn),-0.07,–
CCN(C)N=O,0.04,–
Nc1cccc(Cl)c1,–,42.3 mM
C=CCNc1ncc(-c2ccncc2)cc1C#N,2.07,–
O=c1[nH][nH]c(=O)c2ccccc12,0.11,–
Cn1cccc(O)c1=O,-0.4,–
CCCC(C)C=O (stereo not drawn),–,41.9 mM
C[C@H](CS)C(=O)N1CCC[C@H]1C(=O)O,0.34,–
CNS(=O)(=O)Cc1ccc2[nH]cc(CCN(C)C)c2c1,0.93,–
C=CC(=O)NCCN(C)C,-0.25,–
CC(C)(C)C1CCCCC1,5.04,–
Oc1ccc(C2CNCCc3c2cc(O)c(O)c3Cl)cc1 (stereo not drawn),2.39,–
c1ccc2c(c1)ccc1cc3ccc4ccccc4c3nc12,6.45,–
C[N+](C)(C)CCCl.[Cl-],-3.8,–
